Laboratory results as given in paper PMC7587962, “Evaluation of Cytotoxicity and α-Glucosidase Inhibitory Activity of Amide and Polyamino-Derivatives of Lupane Triterpenoids” (Molecules, 2020).
Read-outs that look alike come from different tables or passages of the source.

How the values were obtained:
[1] = tested on: HL-60(TB); assay: NCI-60 SRB screen: leukemia HL-60(TB); assay type: cell-based; settings: Homo sapiens, HL-60, 48 h
[2] = tested on: RPMI-8226; assay: NCI-60 SRB screen: leukemia RPMI-8226; assay type: cell-based; settings: Homo sapiens, RPMI-8226, 48 h
[3] = tested on: SR; assay: NCI-60 SRB screen: leukemia SR; assay type: cell-based; settings: Homo sapiens, 48 h
[4] = tested on: HOP-62; assay: NCI-60 SRB screen: non-small cell lung cancer HOP-62; assay type: cell-based, human
[5] = tested on: HOP-92; assay: NCI-60 SRB screen: non-small cell lung cancer HOP-92; assay type: cell-based, human
[6] = tested on: NCI-H322M; assay: NCI-60 SRB screen: non-small cell lung cancer NCI-H322M; assay type: cell-based, human
[7] = tested on: NCI-H460; assay: NCI-60 SRB screen: non-small cell lung cancer NCI-H460; assay type: cell-based; settings: Homo sapiens, NCI-H460, 48 h
[8] = tested on: NCI-H522; assay: NCI-60 SRB screen: non-small cell lung cancer NCI-H522; assay type: cell-based, human
[9] = tested on: COLO 205; assay: NCI-60 SRB screen: colon cancer COLO 205; assay type: cell-based, human
[10] = tested on: HCC-2998; assay: NCI-60 SRB screen: colon cancer HCC-2998; assay type: cell-based, human
[11] = tested on: SF-268; assay: NCI-60 SRB screen: CNS cancer SF-268; assay type: cell-based, human
[12] = tested on: SF-539; assay: NCI-60 SRB screen: CNS cancer SF-539; assay type: cell-based, human
[13] = tested on: SNB-75; assay: NCI-60 SRB screen: CNS cancer SNB-75; assay type: cell-based, human
[14] = tested on: SK-MEL-2; assay: NCI-60 SRB screen: melanoma SK-MEL-2; assay type: cell-based, human
[15] = tested on: SK-MEL-28; assay: NCI-60 SRB screen: melanoma SK-MEL-28; assay type: cell-based, human
[16] = tested on: IGROV1; assay: NCI-60 SRB screen: ovarian cancer IGROV1; assay type: cell-based, human
[17] = tested on: OVCAR-4; assay: NCI-60 SRB screen: ovarian cancer OVCAR-4; assay type: cell-based; settings: Homo sapiens, OVCAR-4, 48 h
[18] = tested on: OVCAR-5; assay: NCI-60 SRB screen: ovarian cancer OVCAR-5; assay type: cell-based, human
[19] = tested on: SK-OV-3; assay: NCI-60 SRB screen: ovarian cancer SK-OV-3; assay type: cell-based, human
[20] = tested on: A498; assay: NCI-60 SRB screen: renal cancer A498; assay type: cell-based, human
[21] = tested on: RXF 393; assay: NCI-60 SRB screen: renal cancer RXF 393; assay type: cell-based, human
[22] = tested on: TK-10; assay: NCI-60 SRB screen: renal cancer TK-10; assay type: cell-based, human
[23] = tested on: UO-31; assay: NCI-60 SRB screen: renal cancer UO-31; assay type: cell-based, human
[24] = tested on: PC-3; assay: NCI-60 SRB screen: prostate cancer PC-3; assay type: cell-based, human
[25] = tested on: T-47D; assay: NCI-60 SRB screen: breast cancer T-47D; assay type: cell-based, human
[26] = tested on: MDA-MB-468; assay: NCI-60 SRB screen: breast cancer MDA-MB-468; assay type: cell-based, human; settings: for GI50: five concentrations, 48 h, SRB
[27] = tested on: 60 human tumor cell lines; settings: single dose 10 µM
[28] = tested on: 60 human tumor cell lines; assay: cells
[29] = tested on: Melanoma subpanel; assay: NCI-60 screen, subpanel Melanoma
[30] = tested on: CNS cancer subpanel; assay: NCI-60 screen, subpanel CNS cancer
[31] = tested on: NSCL cancer subpanel; assay: NCI-60 screen, subpanel NSCL cancer
[32] = tested on: Colon Cancer subpanel; assay: NCI-60 screen, subpanel Colon Cancer
[33] = tested on: Breast cancer subpanel; assay: NCI-60 screen, subpanel Breast cancer
[34] = tested on: Ovarian Cancer subpanel; assay: NCI-60 screen, subpanel Ovarian Cancer
[35] = read-out: Percentage Cell Growth

`C=C(C)[C@@H]1CC[C@]2(C(N)=O)CC[C@]3(C)[C@H](CC[C@@H]4[C@@]5(C)CC[C@H](O)C(C)(C)[C@@H]5CC[C@]43C)[C@@H]12` [Compound 5] showed a GI50 [1] of 3.59 µM, an activity at 10 µM [1, 35] of 1.17% and a GI50 [2] of 3.53 µM. The activity at 10 µM [2, 35] was -19.8%, the GI50 [3] was 4.14 µM and the activity at 10 µM [3, 35] was 15.5%. The “Percentage Cell Growth” value ([4]; HOP-62, single dose 10 µM) was −72.18%, the GI50 ([4]; Homo sapiens, HOP-62, 48 h) was 3.21 µM and the “Percentage Cell Growth” value ([5]; HOP-92, single dose 10 µM) was −62.83%. For the same compound, the GI50 ([5]; Homo sapiens, HOP-92, 48 h) was 2.69 µM, the GI50 ([6]; Homo sapiens, 48 h) was 2.59 µM and the “Percentage Cell Growth” value ([6]; single dose 10 µM) was −58.91%. For the same compound, the GI50 [7] was 2.12 µM, the activity at 10 µM [7, 35] was -37.5% and the GI50 ([8]; Homo sapiens, NCI-H522, 48 h) was 3.13 µM. The “Percentage Cell Growth” value ([8]; NCI-H522, single dose 10 µM) was −53.76%, the “Percentage Cell Growth” value ([9]; COLO 205, single dose 10 µM) was −66.21% and the GI50 ([9]; Homo sapiens, COLO 205, 48 h) was 3.63 µM. For the same compound, the “Percentage Cell Growth” value ([10]; HCC-2998, single dose 10 µM) was −39.02%, the GI50 ([10]; Homo sapiens, HCC 2998, 48 h) was 3.96 µM and the GI50 ([11]; Homo sapiens, SF-268, 48 h) was 4.34 µM. For the same compound, the “Percentage Cell Growth” value ([11]; SF-268, single dose 10 µM) was 4.41%, the GI50 ([12]; Homo sapiens, SF-539, 48 h) was 1.78 µM and the “Percentage Cell Growth” value ([12]; SF-539, single dose 10 µM) was −70.46%. For the same compound, the GI50 ([13]; Homo sapiens, SNB-75, 48 h) was 2.74 µM, the “Percentage Cell Growth” value ([13]; SNB-75, single dose 10 µM) was −39.09% and the GI50 ([14]; Homo sapiens, SK-MEL-2, 48 h) was 7.63 µM. For the same compound, the “Percentage Cell Growth” value ([14]; SK-MEL-2, single dose 10 µM) was −31.18%, the GI50 ([15]; Homo sapiens, SK-MEL-28, 48 h) was 1.09 µM and the “Percentage Cell Growth” value ([15]; SK-MEL-28, single dose 10 µM) was 0.38%. The GI50 ([16]; Homo sapiens, IGROV-1, 48 h) was 3.32 µM, the “Percentage Cell Growth” value ([16]; IGROV1, single dose 10 µM) was −58.08% and the GI50 [17] was 3.54 µM. The GI50 ([18]; Homo sapiens, OVCAR-5, 48 h) was 3.78 µM, the “Percentage Cell Growth” value ([18]; OVCAR-5, single dose 10 µM) was −21.57% and the GI50 ([19]; Homo sapiens, SK-OV-3, 48 h) was 8.18 µM. For the same compound, the “Percentage Cell Growth” value ([19]; SK-OV-3, single dose 10 µM) was −45.72%, the “Percentage Cell Growth” value ([20]; A498, single dose 10 µM) was −28.33% and the GI50 ([20]; Homo sapiens, A498, 48 h) was 12.2 µM. The GI50 ([21]; Homo sapiens, RXF 393, 48 h) was 2.1 µM, the “Percentage Cell Growth” value ([21]; RXF 393, single dose 10 µM) was −49.35% and the GI50 ([22]; Homo sapiens, TK-10, 48 h) was 2.79 µM. The “Percentage Cell Growth” value ([22]; TK-10, single dose 10 µM) was −69.84%, the GI50 ([23]; Homo sapiens, UO-31, 48 h) was 1.72 µM and the “Percentage Cell Growth” value ([23]; UO-31, single dose 10 µM) was −100.00%. For the same compound, the GI50 ([24]; Homo sapiens, PC-3, 48 h) was 2.83 µM, the “Percentage Cell Growth” value ([24]; PC-3, single dose 10 µM) was −24.47% and the GI50 ([25]; Homo sapiens, T47D, 48 h) was 4.55 µM. The “Percentage Cell Growth” value ([25]; T-47D, single dose 10 µM) was −24.75%, the GI50 ([26]; Homo sapiens, MDA-MB-468, 48 h) was 1.97 µM and the GI50 [26] was 3.2 µM. For the same compound, the “Percentage Cell Growth” value ([26]; single dose 10 µM) was −56.03%, the “cancer cell lethality, range of percentage growth” value ([27]; cell lines with negative growth) was −1.70% to −100% and the “cases of cancer cell lethality” value ([27]; number of cell lines) was 49. The GI50 ([28]; read-out: GI50 ranges against all panels of NCI60) was 1.09 to 13.2 µM, the GI50 ([28]; read-out: MID a, average sensitivity of all cell line (GI50-MID)) was 3.67 µM and the “MID b, average sensitivity of all cell line of particular subpanel” value (from here on “MID b, average sensitivity”) [29] was 5.58 µM. For the same compound, the “Selectivity, ratio MID a: MID b” value [29] was 0.66, the “MID b, average sensitivity” value [30] was 3.23 µM and the “Selectivity, ratio MID a: MID b” value [30] was 1.14. For the same compound, the “MID b, average sensitivity” value [31] was 2.79 µM, the “Selectivity, ratio MID a: MID b” value [31] was 1.32 and the “MID b, average sensitivity” value [32] was 3.21 µM. The “Selectivity, ratio MID a: MID b” value [32] was 1.14, the “MID b, average sensitivity” value [33] was 3.73 µM and the “Selectivity, ratio MID a: MID b” value [33] was 0.98. For the same compound, the “MID b, average sensitivity” value [34] was 3.88 µM and the “Selectivity, ratio MID a: MID b” value [34] was 0.95.
